Test results taken from patent publication US6136797A, “Phospholipid derivatives of phosphono-carboxylic acids, the production of said derivatives and the use of said derivatives as antiviral medicaments” (priority 1995, dated 2000).
Converted amounts (≈) assume the structure as drawn. Where a name gives a salt, the structure may show the parent alone.

Legend:
[1] = system: Murine Cytomegaly Virus (MCMV); assay: Murine Cytomegaly Virus (MCMV) model, survival rate; assay type: in vivo, female Balb/c mice; settings: 8×10^5 PFU i.p.; oral bioavailability model; drug dose not given
Description: Female Balb/c mice were treated i.p. with a dose of 8×10^5 PFU (plaque forming units).

[2] = system: bone marrow stem cells of the granulocytic/monocytic series; assay: Bone marrow toxicity in vitro (CFU-GM assay); settings: for toxicity on bone marrow stem cells of the granulocytic/monocytic series: in words, up to the highest tested concentration of 100 μg/ml
[3] = Stability (in the investigations and during production); assay type: physicochemical; settings: in the investigations and during production / under the same conditions
[4] = due to similarity to pyrophosphate by accumulation in bones; cited from earlier work
[5] = system: bone marrow; settings: AIDS patients; cited from earlier work
[6] = system: HSV 1 and 2, influenza, HBV, VZV, EBV as well as retroviral infections; settings: cited from earlier work

| SMILES | IC50 ([2]; Mus musculus, CFU-GM) | toxicity on bone marrow stem cells of the granulocytic/monocytic series [2] | also measured |
| --- | --- | --- | --- |
| CCCCCCCCCCCCSCC(COP(=O)(O)C(=O)OC)OCCCCCCCCCC (racemic) [DMDOP-PFA-OMe, R,S-(3-dodecylmercapto-2-decyloxy)propoxy-hydroxy-phosphinylformic acid methyl ester] |  |  | survival rate of the animals (rank order) [1]: untreated<Foscarnet treated<DMDOP-PFA treated<DMDOP-PFA-OMe |
| CCCCCCCCCCCCCCCCCCOCC(O)COP(=O)(O)C(=O)O (stereo not drawn) [OOHP-PFA, (3-octadecyloxy-2-hydroxy)-propoxy-hydroxy-phosphinylformic acid] | 94.5 µg/mL (≈ 209 µM) | more toxic than DMDOP-PFA and DMDOP-PAA |  |
| CCCCCCCCCCCCCCCCCCOC[C@@H](O)COP(=O)(O)C(=O)O [batylphosphonoformate, 1-O-octadecyl-sn-glycero-3-phosphono-formate] |  |  | stability [3]: unstable |
| O=C(O)P(=O)(O)O [phosphonoformic acid] | > 100 µg/mL |  | toxicity [4]: toxic; survival rate of the animals (rank order) [1]: untreated<Foscarnet treated<DMDOP-PFA treated<DMDOP-PFA-OMe |
| N.N.[Cl][Pt][Cl] [Cis-DDP (Cisplatin), Cisplatin] |  |  | IC50 ([2]; CFU-GM assay, mean value±SEM, number of experiments in parentheses, highest tested concentration 100 μg/ml): 0.45 ± 0.11 µg/mL |
| Cc1cn([C@H]2C[C@H](N=[N+]=[N-])[C@@H](CO)O2)c(=O)[nH]c1=O [3'-azido-3'-deoxythymidine, 3'-Azido-3'-deoxythymidine] |  |  | treated patients needing blood transfusions due to toxic side effects on the bone marrow [5]: about 50% |
| COc1cccc2c1C(=O)c1c(O)c3c(c(O)c1C2=O)C[C@@](O)(C(=O)CO)C[C@@H]3O[C@H]1C[C@H](N)[C@H](O)[C@H](C)O1 [Doxorubicin] | 0.046 ± 0.007 µg/mL (≈ 0.0846 µM) |  |  |
| CCCCCCCCCCCCCCCCCCOCC(O)COP(=O)(O)C(=O)OCC (stereo not drawn) [OOHP-PFAE, (3-octadecyloxy-2-hydroxy)-propoxy-hydroxy-phosphinylformic ethyl ester] | 59.4 µg/mL (≈ 123 µM) | more toxic than DMDOP-PFA and DMDOP-PAA |  |
| CCCCCCCCCCCCSCC(COP(=O)(O)C(=O)O)OCCCCCCCCCC (racemic) [DMDOP-PFA, R,S-(3-Dodecylmercapto-2-decyloxy)-propoxy-hydroxy-phosphinyl-formic acid di-sodium salt] | > 100 µg/mL | no toxicity | survival rate of the animals (rank order) [1]: untreated<Foscarnet treated<DMDOP-PFA treated<DMDOP-PFA-OMe |
| CCCCCCCCCCCCSCC(COP(=O)(O)CC(=O)O)OCCCCCCCCCC (racemic) [DMDOP-PAA, R,S-(3-dodecylmercapto-2-decyloxy)-propoxy-hydroxy-phosphinyl acetic acid di-sodium salt] | > 100 µg/mL | no toxicity |  |
| O=C(O)CP(=O)(O)O [phosphonoacetic acid] | 62.9 µg/mL (≈ 449 µM) | more toxic than DMDOP-PFA and DMDOP-PAA | toxicity [4]: toxic; antiviral activity [6]: good antiviral activity |
